Tests used:
[1] = system: mice; assay: Open field (OF) test; assay type: in vivo, Male Swiss mice
Procedure: Male Swiss mice (weighing between 25–30 g; 6–8 weeks old), provided by Central Animal House of the Federal University of Goiás, were used in all behavioural models. The experimental animals were kept in an intra-laboratory facility cage (32 × 18 × 16 cm) under controlled environmental conditions (23 ± 1 °C, 12 hr light-dark cycle) with access to food and water ad libitum. The experimental protocols (number 104/08) were approved by Ethical Committee of Federal University of Goiás in accordance to the international laws on the care and use of laboratory animals.
In the OF, animals were randomly divided into six groups [control (vehicle), 3 different doses of OAD, DZP 1 or 5 mg/kg]. Animals were treated with vehicle, OAD (5, 10 or 20 mg/kg, p.o), DZP (1 or 5 mg/kg, p.o) as described in our previous work[7][49], and placed in a circular open field [base area ( [drawing 2] ) = 62.80 cm^2 which is divided into 8 equal sectors enclosed in a 50 cm high wooden wall]. The test session (5-min duration) was videotaped in a sound-proof experimental room. Parameters like total crossing, freezing time, number of grooming and rearing activity, crossing at the centre and time spent at the centre of the open field were observed and scored.

[2] = target: T1, recombinant human MAO-B (Homo sapiens, UniProt P27338); assay: Kynuramine deamination inhibition assay, MAO-B; assay type: biochemical; settings: 50 μM kynuramine, pH 7.4, 37 °C
T1 construct: purchased BD Biosciences Bedford, MA, USA
T1 sequence (P27338 1-520): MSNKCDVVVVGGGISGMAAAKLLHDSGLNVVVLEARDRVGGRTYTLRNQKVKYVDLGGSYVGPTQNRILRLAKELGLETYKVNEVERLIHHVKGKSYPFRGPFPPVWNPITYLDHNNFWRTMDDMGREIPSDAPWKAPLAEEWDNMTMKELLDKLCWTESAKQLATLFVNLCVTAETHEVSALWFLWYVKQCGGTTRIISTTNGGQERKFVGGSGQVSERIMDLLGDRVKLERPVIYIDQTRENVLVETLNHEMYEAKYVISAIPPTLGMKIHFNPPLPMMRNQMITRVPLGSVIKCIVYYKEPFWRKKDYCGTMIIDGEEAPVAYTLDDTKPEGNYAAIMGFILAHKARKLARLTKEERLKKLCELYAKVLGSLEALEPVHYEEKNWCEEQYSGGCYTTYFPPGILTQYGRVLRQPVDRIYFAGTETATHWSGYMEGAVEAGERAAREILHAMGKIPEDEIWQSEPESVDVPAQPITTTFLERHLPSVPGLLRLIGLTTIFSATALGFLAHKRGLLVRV
Procedure: The assay was performed with the addition of inhibitor. Inhibition was calculated as percent of product formation compared to the corresponding control (enzyme-substrate reaction) without the inhibitors. The reactions were carried out in 0.1 M potassium phosphate buffer at pH 7.4. […] The compounds were dissolved in DMSO. The total reaction volume was 200 μL yielding a final DMSO concentration of 1.0% in the reaction mixture.

## C=CC(=O)O[C@H]1CC[C@]2(C)[C@H]3CC=C4[C@@H]5CC(C)(C)CC[C@]5(C(=O)O)CC[C@@]4(C)[C@]3(C)CC[C@H]2C1(C)C [D1, Oleanolic acid acrylate]
[1]; 10 mg/kg p.o., vs vehicle
  crossing at the centre of the OF: increase
[1]; 20 mg/kg p.o., vs vehicle
  freezing time in the OF: increase
[1]; 5, 10, 20 mg/kg p.o., parameters not named as changed, p > 0.05
  other parameters of the OF test: not altered
[1]; 10 and 20 mg/kg p.o., vs vehicle
  time spent at the centre of the OF: increase
[2]
  IC50: > 100 µM
